Source: PubChem BioAssay (NCI)
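Tested at 5 concentrations; 48 h exposure; 96-well plates; endpoints linearly interpolated, else capped at highest concentration. GI50 = concentration required for 50% inhibition of growth. TGI denotes the concentration required for complete inhibition of growth.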

Columns and labels:
Assay in all cases: NCI tumour cell line growth inhibition, 48 h
SF-268 CNS = test system: SF-268 CNS
NCI-H23 lung = test system: NCI-H23 lung
MOLT-4 leukemia = test system: MOLT-4 leukemia
OVCAR-4 ovarian = test system: OVCAR-4 ovarian
HCT-15 colon = test system: HCT-15 colon
SK-MEL-28 melanoma = test system: SK-MEL-28 melanoma
HCT-116 colon = test system: HCT-116 colon
BT-549 breast = test system: BT-549 breast
SR leukemia = test system: SR leukemia
K-562 leukemia = test system: K-562 leukemia

SMILES | GI50 (SF-268 CNS) | TGI (SF-268 CNS) | GI50 (NCI-H23 lung) | TGI (NCI-H23 lung) | GI50 (MOLT-4 leukemia) | TGI (MOLT-4 leukemia) | GI50 (OVCAR-4 ovarian) | TGI (OVCAR-4 ovarian) | GI50 (HCT-15 colon) | TGI (HCT-15 colon) | GI50 (SK-MEL-28 melanoma) | TGI (SK-MEL-28 melanoma) | GI50 (HCT-116 colon) | TGI (HCT-116 colon) | GI50 (BT-549 breast) | TGI (BT-549 breast) | GI50 (SR leukemia) | TGI (SR leukemia) | GI50 (K-562 leukemia) | TGI (K-562 leukemia)
Cc1ccc2c(O)c(O)cc(NC(C)CCCN)c2n1 (centres undefined) | 16.7 µM | 66.2 µM | 3.3 µM | 19.3 µM | 2.6 µM | 8.99 µM | 2.88 µM | 9.88 µM | > 79.1 µM | > 100 µM | 27.3 µM | 55.3 µM | 3.06 µM | > 40 µM | 32.1 µM | > 68.6 µM | 30.5 µM | 79.3 µM | 12.3 µM | 60.4 µM
COc1ccc2c(c1)C(c1ccccc1Cl)=Nc1c(n[nH]c1C)N2 | 12.5 µM | > 25 µM | 22.6 µM | > 25 µM | > 25 µM | > 25 µM | > 25 µM | > 25 µM | 14 µM | > 25 µM | > 25 µM | > 25 µM | 11.2 µM | > 25 µM | > 21.2 µM | > 25 µM | 10.5 µM | > 25 µM | > 25 µM | > 25 µM
COc1cc(/C=C2\CN(C)C/C(=C\c3cc(CN4CCCCC4)c(O)c(OC)c3)C2=O)cc(CN2CCCCC2)c1O | 3.97 µM | 17.4 µM | 5.11 µM | 21.4 µM | 2.95 µM | 10.7 µM | 4.77 µM | 54.1 µM | 3.29 µM | 12.7 µM | 11.6 µM | 24.5 µM | 2.5 µM | 8 µM | 4.61 µM | 16.3 µM | 3.15 µM | 9.37 µM | 3.12 µM | 35.2 µM
O=C(O)c1ccc(N/C=C2\C(=O)c3ccccc3OC2O)cc1O (centres undefined) | 21.8 µg/mL | 134 µg/mL | 19 µg/mL | 58.4 µg/mL | 13.2 µg/mL | 77.9 µg/mL | 20.6 µg/mL | > 150 µg/mL | 6.17 µg/mL | 26.6 µg/mL | 25.1 µg/mL | 69.2 µg/mL | 17.9 µg/mL | 42.7 µg/mL | 19 µg/mL | 71.2 µg/mL | 5.21 µg/mL | 41 µg/mL | 16 µg/mL | 87.2 µg/mL
N#CC1=C(N)NC(=O)NC12Nc1ccccc1S2 (centres undefined) | 23.6 µM | 70.8 µM | 19.3 µM | 47.7 µM | > 48.3 µM | > 100 µM | 43.4 µM | > 100 µM | 26.7 µM | 87 µM | 26.7 µM | > 70.3 µM | 18.5 µM | 44 µM | 24.2 µM | 93.6 µM | 10.4 µM | > 100 µM | 31.8 µM | > 93 µM
COc1cccc(/C=C/c2cnc3ccccc3n2)c1OC |  | > 100 µM |  | > 100 µM |  | 68.1 µM |  | > 100 µM |  | 92.7 µM |  | > 100 µM |  | > 100 µM |  | 53.1 µM |  | > 100 µM |  | > 100 µM
O=C(Cc1cccc(OC(F)(F)F)c1)Nc1ccc(CCCCc2nnc(NC(=O)Cc3ccccn3)s2)nn1 | 13.6 µM | 39.1 µM | 13.1 µM | 45.8 µM | 5.49 µM | > 100 µM | 7.23 µM | 29 µM | > 100 µM | > 100 µM | 93.1 µM | > 100 µM | 16.2 µM | > 100 µM | 27.9 µM | > 100 µM | 33.7 µM | > 100 µM | 16.9 µM | > 100 µM
c1ccc(-n2nnnc2-c2cccc3ccccc23)cc1 | 0.833 µM | > 73.1 µM | 1.28 µM | > 100 µM | 0.657 µM | > 100 µM | 11.4 µM | > 100 µM | 0.348 µM | > 100 µM |  | > 100 µM | 0.401 µM | 24.5 µM | 0.755 µM | > 61.2 µM | 0.438 µM | 74.4 µM | 0.377 µM | > 100 µM
S=C1Nc2ccc(Cl)cc2C2(c3ccccc3)N3CCN=C3NN12 (centres undefined) | 28.6 µM | > 100 µM | > 100 µM | > 100 µM | 22.8 µM | 61.6 µM | 26.1 µM | > 100 µM | 34 µM | > 100 µM | 30.9 µM | > 100 µM | 29.4 µM | > 100 µM | 30.8 µM | > 100 µM | 23.7 µM | 88.8 µM | 24.9 µM | 66.1 µM
NS(=O)(=O)c1cccc(N=Cc2c(O)[nH]c3ccccc23)c1 | > 25 µM | > 25 µM | > 25 µM | > 25 µM | > 25 µM | > 25 µM | > 25 µM | > 25 µM | > 25 µM | > 25 µM | > 25 µM | > 25 µM | > 25 µM | > 25 µM | > 25 µM | > 25 µM | > 25 µM | > 25 µM | > 25 µM | > 25 µM
Cc1cc(C)c(O)c(CN(C)Cc2cc(Cl)cc(Cl)c2O)c1 | 3.26 µM | 19.2 µM | 3.91 µM | 17.3 µM | 3.45 µM | 34.7 µM | 2.62 µM | 10.6 µM | 3.41 µM | 16.8 µM | 11.4 µM | 24 µM | 3.23 µM | 10.8 µM | 11.8 µM | 27.3 µM | 3.69 µM | 24.5 µM | 3.54 µM | > 100 µM
CC(=O)OC1CC2(O)C3CCC4CC(O)CCC4(C)C3CCC2(C)C1C1=CC(=O)OC1 (centres undefined) |  | 0.15 µM |  | 0.137 µM |  | 0.0593 µM |  | 0.19 µM |  | 0.253 µM |  | 0.654 µM |  | 0.186 µM |  | 0.0895 µM |  | 0.131 µM |  | 1.87 µM
N#CCc1ncc(-c2ccc(C(F)(F)F)cc2)c(NC2CCCCCC2)n1 | > 10 µM | > 10 µM | > 10 µM | > 10 µM | > 10 µM | > 10 µM | > 10 µM | > 10 µM | > 10 µM | > 10 µM | > 10 µM | > 10 µM | > 10 µM | > 10 µM | > 10 µM | > 10 µM | > 10 µM | > 10 µM | > 10 µM | > 10 µM
